From ChEMBL document CHEMBL1131348, “Pyrazolo[1,5-a]pyrimidine CRF-1 receptor antagonists” (Bioorg Med Chem Lett, 1998)

Molecular target: T1, Corticotropin-releasing factor receptor 1 (Homo sapiens, UniProt P34998)
T1 sequence (P34998 whole entry): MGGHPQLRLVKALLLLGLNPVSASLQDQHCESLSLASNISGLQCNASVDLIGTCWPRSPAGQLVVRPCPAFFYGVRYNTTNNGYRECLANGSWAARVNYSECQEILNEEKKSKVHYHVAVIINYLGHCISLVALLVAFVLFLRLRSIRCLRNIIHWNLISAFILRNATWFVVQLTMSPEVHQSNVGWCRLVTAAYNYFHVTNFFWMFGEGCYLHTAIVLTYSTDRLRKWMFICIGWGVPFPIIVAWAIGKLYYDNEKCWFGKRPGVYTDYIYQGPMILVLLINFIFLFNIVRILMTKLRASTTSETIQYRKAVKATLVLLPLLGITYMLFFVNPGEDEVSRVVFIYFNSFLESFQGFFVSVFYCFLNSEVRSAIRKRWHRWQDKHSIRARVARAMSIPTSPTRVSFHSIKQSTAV
Assay: Displacement of [125I]0-CRF from human Corticotropin releasing factor receptor 1 expressed in CHO cells
Type: cell-based

Ki [nM]	Structure (SMILES)
56	CCCCN(CC)c1nc(C)nc2c1c(C)cn2-c1c(C)cc(C)cc1C [CP-154526]
11	CCN(CCOC)c1cc(C)nc2c(-c3ccc(Cl)cc3Cl)c(C)nn12
69	CCCCNc1cc(C)nc2c(-c3ccc(Cl)cc3Cl)c(C)nn12
310	Cc1cc(N2CCOCC2)n2nc(C)c(-c3ccc(Cl)cc3Cl)c2n1
93	CCCCN(CC)c1cc(C)nc2c(-c3c(Cl)cc(Cl)cc3Cl)c(C)nn12
216	CCCCN(OC)c1cc(C)nc2c(-c3ccc(Cl)cc3Cl)c(C)nn12
77	CCCCN(CC)c1cc(C)nc2c(-c3ccc(Cl)cc3)c(C)nn12
6.4	CCCC1CCCCN1c1cc(C)nc2c(-c3ccc(Cl)cc3Cl)c(C)nn12 (centres undefined)
40	CCCCN(CC)c1cc(C)nc2c(-c3ccc(Cl)cc3Cl)cnn12
3.2	CCCN(CC1CC1)c1cc(C)nc2c(-c3ccc(Cl)cc3Cl)c(C)nn12
15	CCCCN(CC)c1cc(C)nc2c(-c3ccccc3Cl)c(C)nn12
511	CCCCN(CC)c1cc(C)nc2c(-c3ccccc3)c(C)nn12
5	CCCCN(CC)c1cc(C)nc2c(-c3ccc(Cl)cc3Cl)c(C)nn12
41	Cc1cc(N2CCCCC2)n2nc(C)c(-c3ccc(Cl)cc3Cl)c2n1
